In patent US20030089034A1, “Formulation and method for increasing the essential oil content in aromatic crops” (priority 2001, published 2003):

What was measured:
Assay type in all cases: in vivo
Mentha arvensis cv. Kosi [1] = assay: Field testing of identified compounds, essential oil content; details: for Content of Essential Oil (%): 2 mM spray at onset of maturity, 15 days before harvest, water control 0.66, LSD (p = 0.05) 0.06
Procedure: (§1) The eight chemicals selected in the previous example for their effects on aromatic plants were subsequently field tested using 2 mM solutions of each chemical in sterilized distilled water. The field tests were performed on Pelargonium graveolens cv. Bipuli and Mentha arvensis cv. […] The plants were sprayed with the 2 mM solutions of the chemicals at the onset of maturity, 15 days before harvest. Plants sprayed with sterilized distilled water served as a control group.

[2] = tested on: Pelargonium graveolens cv. Bipuli; assay: as above; details: for Content of Essential Oil (%): 2 mM spray at onset of maturity, 15 days before harvest, water control 0.13, LSD (p = 0.05) 0.01; for change in essential oil content (in words): stated for the field tests of Table 1 (both plants) without naming the plant
Procedure: as §1

Mentha arvensis cv. Kosi [3] = assay: Optimal crop maturity stage for chemical application, essential oil content; details: 2 mM spray, LSD (p = 0.05) 0.07
Procedure: In this example, three of the chemicals described above were further investigated to determine the optimal crop maturity stage for applying the formulation. The three chemicals used in this example were DL-2 amino butyric acid, isonicotinamide, and salicylic acid, all at concentrations of 2 mM. The solutions were tested on Mentha arvensis cv. Kosi planted in a randomized block design with 5 replications. In these experiments, the crops were sprayed at 4 different stages of growth and development including 10-day-old crops, 50-day-old crops, 80-day-old crops, and 100-day-old crops.

[4] = tested on: Chamomilla recutita, Artemisia pallens, Pelargonium graveolens, and Mentha arvensis; assay: Screening of resistance-inducing chemicals on potted aromatic plants under glasshouse conditions; details: plants in pots, four aromatic plants
Description: In this example, fifteen chemicals known to induce resistance in plants were screened by applying the chemicals to four varieties of aromatic plants in pots. The four aromatic plants used in this screening included: Chamomilla recutita, Artemisia pallens, Pelargonium graveolens, and Mentha arvensis. […] These eight chemicals include isonicotinamide, DL-2 amino butyric acid, 4-chlorosalicylic acid, 2-amino isobutyric acid, o-acetyl salicylic acid, amino salicylic acid, salicylic acid, and 5-nitrosalicylic acid.

Mentha arvensis cv. Kosi [5] = assay: Further large plot field testing at about 206 mg/L, essential oil content
Procedure: (§2) In the present example, field experiments were conducted, wherein 6 larger plots of Pelargonium graveolens cv. Bipuli (about 25 m^2) were sprayed with solutions of DL-2 amino butyric acid at several different concentrations. An equal number of plots sprayed with sterilized distilled water served as a control group. At least 20 samples of herbage from the sprayed plots and at least 20 samples of herbage from the control plots were distilled in Clevenger type glass apparatus 15 days after spray.
(§3) Further field testing involved samples of herbage of both Pelargonium graveolens cv. Bipuli and Mentha arvensis cv. Kosi being treated with a solution of DL-2 amino butyric acid at a concentration of about 206 mg/L in water. Similarly to the above tests, large plots were sprayed with the DL-2 amino butyric acid solution, and samples of herbage from both the sprayed plots and the control plots were examined for their essential oil content.

[6] = tested on: Pelargonium graveolens cv. Bipuli; assay: as above
Procedure: as §2, §3

[7] = tested on: Pelargonium graveolens cv. Bipuli; assay: Large scale field testing at several concentrations, essential oil content; details: for Content of Essential Oil (%): distilled 15 days after spray, water 0.16, LSD (p = 0.05) 0.01
Procedure: as §2

[8] = age of crop at spray 10 days, water 0.67
[9] = age of crop at spray 50 days, water 0.67
[10] = age of crop at spray 80 days, water 0.68
[11] = age of crop at spray 100 days, water 0.66
[12] = 2 mM spray, versus water control
[13] = about 206 mg/L, compared to herbage samples treated only with water

Row | Compound | Content of Essential Oil (%) (Mentha arvensis cv. Kosi [1]) | Content of Essential Oil (%) [2] | change in essential oil content (in words) ([2]; 2 mM spray) | Content of Essential Oil (%) (Mentha arvensis cv. Kosi [3]; [8]) | Content of Essential Oil (%) (Mentha arvensis cv. Kosi [3]; [9]) | Content of Essential Oil (%) (Mentha arvensis cv. Kosi [3]; [10]) | Content of Essential Oil (%) (Mentha arvensis cv. Kosi [3]; [11]) | improving growth and herbage and/or essential oil content [4] | increase in essential oil content (Mentha arvensis cv. Kosi [1]; [12]) | increase in essential oil content [2, 12] | Content of Essential Oil (Mean % ± S.E.) (Mentha arvensis cv. Kosi [5]; about 206 mg/L in water, n ≧ 20 herbage samples, water 0.74 ± 0.02) | increase in essential oil content (Mentha arvensis cv. Kosi [5]; [13]) | Content of Essential Oil (Mean % ± S.E.) ([6]; about 206 mg/L in water, n ≧ 20 herbage samples, water 0.14 ± 0.01) | increase in essential oil content [6, 13] | Content of Essential Oil (%) ([7]; 0.1 mM solution) | Content of Essential Oil (%) ([7]; 1.0 mM solution) | increase in essential oil content ([7]; 2 mM and 4 mM, versus water) | Content of Essential Oil (%) ([7]; 2.0 mM solution) | Content of Essential Oil (%) ([7]; 4.0 mM solution)
1 | O=C(O)c1ccccc1O [salicylic acid] | 0.70% | 0.11% | slight reduction | 0.70% | 0.68% | 0.70% | 0.70% | particularly effective | – | – | – | – | – | – | – | – | – | – | –
2 | CCC(N)C(=O)O (racemic) [DL-2 amino butyric acid] | 0.84% | 0.19% | – | 0.80% | 0.82% | 0.81% | 0.84% | particularly effective | about 27% | about 46% | 0.89 ± 0.02% | about 20% | 0.19 ± 0.01% | about 36% | 0.16% | 0.17% | about 25% | 0.20% | 0.20%
3 | O=C(O)c1ccc(Cl)cc1O [4-chloro salicylic acid] | 0.68% | 0.13% | – | – | – | – | – | particularly effective | – | – | – | – | – | – | – | – | – | – | –
4 | O=C(O)c1cc([N+](=O)[O-])ccc1O [5-nitrosalicylic acid] | 0.73% | 0.13% | – | – | – | – | – | particularly effective | – | – | – | – | – | – | – | – | – | – | –
5 | CC(C)(N)C(=O)O [2-amino isobutyric acid] | 0.72% | 0.12% | – | – | – | – | – | particularly effective | – | – | – | – | – | – | – | – | – | – | –
6 | NC(=O)c1ccncc1 [isonicotinamide] | 0.70% | 0.14% | slight increase | 0.71% | 0.70% | 0.70% | 0.70% | particularly effective | – | – | – | – | – | – | – | – | – | – | –
